The source of these data is patent US11529343B2, “Compositions and methods for identifying and treating dystonia disorders” (DUKE UNIVERSITY, priority 2015, dated 2022).

Data set [1] has as its system CreP. The data set is described as follows: Western blot, CreP abundance in EGFP-ΔE Torsin1a expression assay cell line. In kind it is cell-based, human. Particulars: increasing concentration. How it is done:
(§1) Cells were harvested in RIPA buffer [150 mM NaCl/50 mM NaH2PO4/2 mM EDTA/1% Triton X-100/0.5% SDS/0.5% deoxycholic acid/50 mM NaF/10 mM Na4P2O7/1 mM Na3VO4/1× phosphatase inhibitor cocktail (Sigma #P5726)/1× cOmplete Mini EDTA-free protease inhibitor cocktail (Roche #04693159001)]. Total protein concentrations were assessed by BCA assay (Thermo Fisher Scientific #23225). Proteins were resolved on 4-15% TGX gels (Bio-Rad #5671085), transferred to nitrocellulose membrane, blocked in TBS-T+5% non-fat dry milk, and probed as indicated. (Primary antibodies employed in the examples of the disclosure are presented in Table 4.) ATF4 expression was normalized to […] expression. N=3 independent control cells lines and 4 independent DYT1 cell lines, 3 replicates each.
(§2) Western blot analyses were conducted to determine the effect of Lopinavir on ATF4, CreP, pEIF2-alpha, and β-actin abundance in EGFP-ΔE Torsin1a expression assay cell lines. […] This down regulation of CreP is in keeping with the HIV protease inhibitor mediated CreP regulation. (See De Gassart et al. PNAS 2015.)
A general note: Immunoblotting shows a protein as a band on a membrane.

The test system of data set [2] is ATF4. The data set is described as follows: Western blot, ATF4 abundance in EGFP-ΔE Torsin1a expression assay cell line. Particulars: increasing concentration. Type of data set: cell-based, human. As for the experimental part: as §1, §2
Data set [3] relates to luciferase secretion. The data set is described as follows: C.Luc. Secretion Assay. In kind it is cell-based. The note with it: orthogonal assays. As for the experimental part:
We tested each shRNA for its ability to rescue a previously described defect in luciferase secretion. Chen, P. et al. (2010) Hum. Mol. Genet. 19, 3502-15; Cao, S. et al. (2010) Dis. Model Mech. 3, 386-96; Barrows, N. J., et al., (2010) J. Biomol. Screen. 15, 735-47.) DYT1 patient data were obtained from 4 independent patient-derived lines and WT data (black bar) from 3 normal healthy control lines. Each line was tested in 5 independent experiments that included 4 technical replicates each (with the exception of SCD data from 3 independent experiments).
(Cao, S. et al. (2010) Dis. Model. Mech. 3, 386-96.) Subsequent testing of additional HIV protease inhibitors supported the activity of this class of compounds and generated favorable structure-activity relationship (SAR) data from which to design improved compounds (Tables 5 and 6). The results with a subset of compounds were also observed in a Luciferase secretion assay (Tables 5 and 6).

In data set [4] the test system is pEIF2-alpha. The data set is described as follows: Western blot, phosphorylation of EIF2-alpha in EGFP-ΔE Torsin1a expression assay cell line. Type of data set: cell-based, human. Particulars: increasing concentration. How it is done:
as §1, §2

For data set [5], the system named is Flp-In T-REx 293 cells inducibly expressing delta-E Torsin1a. The data set is described as follows: Cytotoxicity (cell count, cellular morphology) in the Torsin1a assay cell line. Type of data set: cell-based, human. As for the experimental part: (§3) In order to test this model directly, the delta-E Torsin1a cell line was treated with compounds targeting the eIF2-alpha signaling pathway (FIG. 2). […] The following day, serial drug dilutions were prepared at 2× final concentration in assay media containing 10 μg/mL tetracycline and 30 μL of the drug/tetracycline mixture was added to the appropriate wells, while control wells received 30 μL of assay media alone or assay media+10 μg/mL tetracycline (final tetracycline concentration for all wells except negative controls: 5 μg/mL). Cells were then incubated at 37° C./5% CO^2 for 48 hours and fixed, permeabilized, Hoechst stained, and imaged as described above. The range of the Torsin1a localization effect was normalized to the percentage of cells with puncta in vehicle-treated delta-E cell line as the maximum and that in WT cell line as the minimum (FIG. 2, panels c-h). Cell count and EGFP-Torsin1a expression were normalized to their respective values in the vehicle-treated delta-E cell line as the maximum. All dose response data are the average of 4 independent experiments per dose. Untreated control data used for normalization are the average of 24 independent experiments.
Efficacy is calculated as the magnitude of the pathology correction relative to the mutant Torsin1a pathology. For example an efficacy=−100% would be equivalent to the WT TorsinA phenotype, and 0% would be equivalent to the Mutant TorsinA phenotype. CCv2 refers to the dose response Curve Class annotation, and AC refers to Active Concentration.

Data set [6] relates to delta-E Torsin1a localization. The data set is described as follows: Delta-E Torsin1a mislocalization assay (% cells with EGFP puncta, high-content imaging). In kind it is cell-based, human. How it is done: To limit variation in expression levels associated with random integration or transient expression, single copies of either WT or delta-E human TOR1A cDNAs with N-terminal EGFP fusions were inserted at the FRT site in Flp-In™ T-Rex™ 293 cells (Thermo Fisher Scientific #R780-07) via flippase recombinase-mediated cassette exchange according to the manufacturer's recommended protocols.
The cells were maintained at 37° C./5% CO2. All experiments were performed on cells with fewer than 5 passages.
Torsin1a expression was also controlled by tetracycline induction to avoid selective pressure modifying the cellular phenotypes. […] The mutant phenotype was measured as the percentage of cells with one or more EGFP puncta using automated high-content imaging analysis (see infra).
The image analysis algorithm was developed using the Cellomics ArrayScan V CompartmentAnalysisV2 protocol. Hoechst's nuclear staining (Ch1: excitation 350 nm; emission 461 nm) was used for focusing and for cell identification by nuclear size, shape, and intensity. […] Detected cells were gated according to nuclear area, length-to-width ratio, and perimeter-to-area ratio. For the purpose of analysis, cell bodies were defined by a radius of 10 μm from the outer edge of the defined nucleus. Overlapping cells were automatically segmented according to the Cellomics ArrayScanV CompartmentAnalysisV2 object segmentation feature. EGFP fluorescence (Ch2: excitation 488 nm; emission 509 nm) was used for puncta detection. […] Torsin a puncta were identified using the spot detection feature of the Compartmental AnalysisV2 protocol. The percentage of cells containing one or more puncta was used as the primary metric in this assay.
as §3

SMILES strings stand for the structures.

Turning to `Cc1cccc(C)c1OCC(=O)N[C@@H](Cc1ccccc1)[C@@H](O)C[C@H](Cc1ccccc1)NC(=O)[C@H](C(C)C)N1CCCNC1=O` [Lopinavir], the “steady state levels of CreP” value in data set [1] is recorded as “down-regulation of steady state levels”. Moreover, the “steady state levels of CreP” value in data set [1] (listed as lopinavir) was “decreases CReP abundance”. In data set [2], the ATF4 abundance result is “increases phosphorylation of EIF2-alpha and ATF4 abundance in a dose dependent manner”. In data set [3], the “effect on secretory deficits, in words” value was “corrected secretory deficits”. Further, the “phosphorylation of EIF2-alpha” value in data set [4] is recorded as “increases phosphorylation of EIF2-alpha”. In data set [5], the “Cytotox Efficacy” value was −69.87% and the “Cytotox Max Resp” value is −55.19%. Further, the “Cytotox CC-v2 (dose response Curve Class)” value in data set [5] (curve class per Inglese et al. 2006) is −3. In addition, the Emax in data set [6] (Homo sapiens, delta-E Torsin1a assay cell line, read-out: ΔE TorsinA Mislocalization Assay Localization Max Efficacy) came to 70%. For the same compound, the “effect on delta-E Torsin1a localization (cells with puncta), in words” value in data set [6] (dose response, delta-E cell line) is given as “corrected TorsinA localization in a dose-dependent fashion”.
